Publication PMC6057649, “Development of NanoLuc-PEST expressing Leishmania mexicana as a new drug discovery tool for axenic- and intramacrophage-based assays” (PLoS Neglected Tropical Diseases, 2018)

System: NanoLuc-PEST expressing L. mexicana axenic amastigotes
Assay: microbe, parasite or virus in culture
Assay type: cell-based
Details: for Relative Bioluminescence (%) / viability at 2 µM / viability at 10 µM: 72 hours, relative to DMSO only control, n = 4; for viability at 2 µM / viability at 10 µM: Leishmania mexicana, read-out: Relative Bioluminescence (%); for EC50: hit compounds from the axenic amastigote screen, S3 Table, read-out: EC50, Axenic Amastigotes

Row | SMILES | Relative Bioluminescence (%) (2 µM compound) | Relative Bioluminescence (%) (10 µM compound) | viability at 2 µM (2 µM compound) | viability at 10 µM (10 µM compound) | EC50
1 | O=C(C1CCN(c2nnc(-n3cccc3)s2)CC1)N1CCC(Cc2ccccc2)CC1 [MMV676478] | 93.56% | 56.18% |  |  | 
2 | O=C(Nc1cccc(-c2ccc(NCCCN3CCCC3)nc2)c1)c1ccccc1 [MMV023953] | 85.42% | 83.96% |  |  | 
3 | COc1ccc(Cn2cnc3c(-c4ccco4)nc(Cl)nc32)cc1 [MMV687170] | 107.56% | 104.36% |  |  | 
4 | CO[C@H]1/C=C/O[C@@]2(C)Oc3c(C)c(O)c4c(O)c(c(/C=N/N5CCN(C)CC5)c(O)c4c3C2=O)NC(=O)/C(C)=C\C=C\[C@H](C)[C@H](O)[C@@H](C)[C@@H](O)[C@@H](C)[C@H](OC(C)=O)[C@@H]1C [MMV688775, Rifampicin, reference compound] |  |  | 47.6% | 2.74% | 
5 | COc1cc(NC(C)CCCN)c2ncccc2c1 (centres unmarked) [MMV000023, Primaquine, reference compound] |  |  | 55% | 76.8% | 
6 | CNC(=O)c1nn(C)c2c1C(C)(C)Cc1cnc(Nc3ccc(N4CCN(C)CC4)cc3)nc1-2 [MMV676602] | 91.95% | 77.62% |  |  | 
7 | CCC(C)NC(=O)c1ccc(NC(=O)C2(c3ccccc3)CCCC2)cc1 (centres unmarked) [MMV146306] | 97.77% | 40.43% |  |  | 
8 | Nc1cccnc1Nc1ccc(Cl)cc1 [MMV676524] | 60.00% | 65.52% |  |  | 
9 | CCN(CC)S(=O)(=O)c1ccc(Cl)c(C(=O)Nc2ccc3nc(C)sc3c2)c1 [MMV019721] | 65.53% | 69.43% |  |  | 
10 | O=C(NCCN1CCCC1)c1cc(NCCCCN2CCC(F)(F)CC2)nc2ccc(Cl)cc12 [MMV667494] | 55.75% | 61.89% |  |  | 
11 | Cc1ccc2nc(Cl)c(CNCc3cccs3)cc2c1 [MMV676439] | 83.45% | 95.86% |  |  | 
12 | N#Cc1ccc(-c2cnc(N)c(-c3ccc(C(N)=O)cc3)n2)cc1 [MMV085499] | 98.08% | 54.27% |  |  | 
13 | CCC(NC(=O)c1ccccc1NC(=O)c1ccc(C)cc1)C(=O)OC (centres unmarked) [MMV019551] | 70.29% | 42.20% |  |  | 
14 | COc1ccc(C(=N)N)cc1-c1cn(-c2ccc(C(=N)N)cc2)nn1 [MMV675998] | 92.81% | 65.21% |  |  | 
15 | N#CCN(CCCCN1CCN(c2ccc(F)cc2)CC1)C(=O)OCc1ccccc1 [MMV675997] | 116.18% | 97.48% |  |  | 
16 | O=C(Nc1nc(-c2ccccn2)cs1)C1CC1c1ccccc1F (centres unmarked) [MMV1028806] | 58.01% | -0.60% |  |  | 
17 | CCCS(=O)(=O)N1CCC(CO)(Cc2ccccc2C(F)(F)F)CC1 [MMV001059] | 109.79% | 96.75% |  |  | 
18 | CC(=O)N(CCN(C(=O)c1ccc(F)cc1)c1ccccc1)c1ccccc1 [MMV676064] | 105.34% | 123.90% |  |  | 
19 | NCC(c1cccs1)S(=O)(=O)c1ccccc1 (centres unmarked) [MMV688557] | 71.96% | 58.46% |  |  | 

Row | SMILES | Relative Bioluminescence (%) (2 µM compound) | Relative Bioluminescence (%) (10 µM compound) | viability at 2 µM (2 µM compound) | viability at 10 µM (10 µM compound) | EC50
20 | O=C(NCCc1ccccc1)c1cc(-c2cccnc2)cnc1NCC1CC1 [MMV026490] | 92.31% | 60.31% |  |  | 
21 | CN(C(=O)c1cc2c(-c3cncnc3)cccc2[nH]1)c1ccccc1 [MMV024443] | 64.75% | 32.60% |  |  | 
22 | c1cncc(NCc2ccc(-c3cc4ccncc4cc3OC3CCNCC3)s2)c1 [MMV023969] | 76.39% | 74.16% |  |  | 
23 | Clc1ccc(-n2cc(COc3ccnc4ccccc34)nn2)cc1 [MMV675994] | 74.96% | 81.16% |  |  | 
24 | CNc1cc(C)nc(C2CN(C(=O)c3n[nH]c4ccccc34)CCO2)c1 (centres unmarked) [MMV689709] | 77.39% | 68.10% |  |  | 
25 | O=C(Nc1n[nH]c(=S)s1)c1cc(Br)ccc1Cl [MMV676492] | 60.28% | 23.83% |  |  | 
26 | CNc1nnc(Sc2cnn(-c3ccccc3)c(=O)c2Cl)s1 [MMV688763] | -1.63% | -0.71% |  |  | 380 nM
27 | COc1cccc(CC(=O)N2CCC(n3c(C)nc4ccc(F)cc43)CC2)c1 [MMV020081] | 98.78% | 73.47% |  |  | 
28 | NC(N)=Nc1ccc(-c2ccc(-c3ccc(N=C(N)N)cc3Cl)o2)c(Cl)c1 [MMV688179] | 105.96% | 54.50% |  |  | 
29 | Clc1ccc(CCNc2cc(-c3ccccc3)nc3ncnn23)cc1 [MMV688889] | 73.23% | 59.03% |  |  | 
30 | Cc1cc(C)cc(COc2ccc3c(C)c(CCC(=O)O)c(=O)oc3c2C)c1 [MMV676476] | 1.36% | -0.27% |  |  | 580 nM
31 | O=C(Nc1ccc(N2CCNCC2)cc1)c1ccn2ncc(-c3cccc(Cl)c3)c2n1 [MMV022478] | 88.45% | 5.54% |  |  | 
32 | CCCCc1ccc(C(=O)Nc2nccc3ccccc23)nc1 [MMV687254] | 63.72% | -0.07% |  |  | 
33 | N#Cc1nc(-c2ccccc2F)oc1NCCc1ccccc1 [MMV676384] | 51.03% | 59.90% |  |  | 
34 | Cn1ccnc1CNCCS(=O)(=O)c1cccc(Nc2ccc(-c3cccc(F)c3)cn2)c1 [MMV688466] | 108.11% | 117.26% |  |  | 
35 | O=C(Nc1ccnc(-c2cccnc2)n1)c1cc(C(F)(F)F)cc(C(F)(F)F)c1 [MMV019838] | 125.18% | 86.78% |  |  | 
36 | c1ccc(C[C@@H]2CN(c3nccc(Oc4ccc(-n5ccnc5)cc4)n3)CCN2)cc1 [MMV687749] | 66.01% | 56.67% |  |  | 
37 | CN1CCC(NCc2cccc(-c3ccc(S(=O)(=O)NCc4ccccc4)cc3)c2)CC1 [MMV022029] | 99.81% | 101.70% |  |  | 
38 | O=C1Nc2ccc(Br)cc2C12NCCc1c2[nH]c2ccccc12 (centres unmarked) [MMV006239] | 107.64% | 108.03% |  |  | 

Row | SMILES | Relative Bioluminescence (%) (2 µM compound) | Relative Bioluminescence (%) (10 µM compound) | viability at 2 µM (2 µM compound) | viability at 10 µM (10 µM compound) | EC50
39 | Cc1nc(-c2cccc(NCc3ccccc3)c2)[nH]c1C [MMV023227] | 80.48% | 64.23% |  |  | 
40 | Cc1nn(C)cc1C(C)Nc1nncc(-c2ccc(C(F)(F)F)cc2)n1 (centres unmarked) [MMV019993] | 96.83% | 70.73% |  |  | 
41 | O=C(NC1CCCCC1)N1CCN(Cc2ccc3c(c2)OCO3)CC1 [MMV676444] | 89.21% | 81.76% |  |  | 
42 | Cc1cccnc1NC(=O)c1cccc(OCc2c(C)noc2C)c1 [MMV688793] | 74.59% | 52.13% |  |  | 
43 | CC(=O)N1CCc2cc3nc(C)cc(C)c3cc21 [MMV054312] | 120.77% | 116.16% |  |  | 
44 | CC(C)(C)OC(=O)N1CCN(c2nccc(-c3ccc(-c4ccc(Cl)cc4)s3)n2)CC1 [MMV688416] | 76.11% | 66.54% |  |  | 
45 | Cc1cc(Nc2ccncc2)n2nc(C)c(-c3ccccc3Cl)c2n1 [MMV016136] | 83.56% | 91.85% |  |  | 
46 | Cc1cc(NC(=O)c2ccc(S(=O)(=O)N(Cc3ccccc3)C(C)C)cc2)no1 [MMV007133] | 102.77% | 71.20% |  |  | 
47 | Brc1cncc(-c2cc(NCCCn3ccnc3)nc(-c3ccccc3)n2)c1 [MMV661713] | 76.01% | 83.31% |  |  | 
48 | NC(=O)c1cc(Br)ccc1OCCOc1ccccc1 [MMV687243] | 65.34% | 78.50% |  |  | 
49 | COC(=O)c1c(NC(=O)c2cc3ccccc3oc2=O)sc2c1CCN(Cc1ccccc1)C2 [MMV676480] | 96.73% | 61.83% |  |  | 
50 | O=C(C(Cc1c[nH]c2ccccc12)NS(=O)(=O)c1ccc(Cl)cc1)N1CCCCC1 (centres unmarked) [MMV085210] | 65.83% | 73.33% |  |  | 
51 | C[C@H]1c2cccc(O)c2C(=O)C2=C(O)[C@]3(O)C(=O)C(C(N)=O)=C(O)[C@@H](N(C)C)[C@@H]3[C@@H](O)[C@@H]21 [MMV000011, Doxycycline, reference compound] |  |  | 95% | 94.7% | 
52 | CCN(CC)CCCCCCNc1cc(OC)cc2c(C)ccnc12 [MMV000063, Sitamaquine, reference compound] |  |  | 69.6% | 73.6% | 
53 | CC(C)n1ncc2c(C(=O)NCC(c3cccs3)N3CCOCC3)cc(-c3ccccc3)nc21 (centres unmarked) [MMV676406] | 54.35% | 35.79% |  |  | 
54 | Cc1ccc(Oc2ccc(NC(=O)CNc3ccccc3N3CCCC3=O)cc2)cc1 [MMV020512] | 56.59% | 56.11% |  |  | 
55 | CC[C@@H]([C@H](C)O)n1ncn(-c2ccc(N3CCN(c4ccc(OC[C@@H]5CO[C@@](Cn6cncn6)(c6ccc(F)cc6F)C5)cc4)CC3)cc2)c1=O [MMV688774, Posaconazole, reference compound] |  |  | 31.3% | -1.25% | 
56 | CC(C)C(Oc1cccc2ccccc12)C(=O)O (centres unmarked) [MMV676191] | 107.96% | 94.76% |  |  | 
57 | OC(c1cc(C(F)(F)F)nc2c(C(F)(F)F)cccc12)C1CCCCN1 (centres unmarked) [MMV000014, Mefloquine, reference compound] |  |  | 93.4% | 109% | 
